Test results published in PubChem BioAssay (NCI).
“And” between values parts separate entries of the source, which are not always exact repeats. Identical values can stand only once.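 Cells were grown in 96-well plates and exposed to each compound for 48 hours at five concentrations; endpoints were interpolated linearly between bracketing concentrations, or set to the highest concentration if not reached. Abbreviation: GI50, concentration required for 50% inhibition of growth. TGI: concentration producing complete growth inhibition.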

Test system: MDA-MB-468 breast
Assay: DTP human tumour cell line panel, 48 h

With `O=C(Nc1ccc(CN2CCOCC2)cc1)c1ccc(-c2cc(Cl)ccc2Cl)o1` the GI50 was 4520 nM and the TGI was 25800 nM.

In the case of `O=c1c2cc(F)ccc2sc2c(N3CCNCC3)nc3ccccc3c12`, the GI50 was 1580 nM and the TGI was 3190 nM.

In the case of `CCn1cc(C(=O)O)c(=O)c2cc(F)c(N3CCN(S(=O)(=O)c4ccc(Cl)cc4)CC3)cc21`, the GI50 was 2100 nM and the TGI was 6240 nM.

`Nc1cc(-c2c[nH]c3ccc(Br)cc23)nc2cc(-c3c[nH]c4ccc(Br)cc34)nn12` showed a GI50 of 1590 nM and a TGI of 3160 nM.

In the case of `CN1CCc2c(c3ccccc3c3ccccc23)C1`, the GI50 was 2220 nM and the TGI was 9940 nM.

`O=C(N/N=C/c1ccccc1O)c1ccccc1O` gave a GI50 of 427 nM and a TGI of 5560 nM.

`O=C(Nc1cccc(-n2cc(-c3ccncc3)c(-c3ccc(Cl)c(O)c3)n2)c1)Nc1ccc(Cl)c(C(F)(F)F)c1` was tested, and the GI50 was 547 nM and the TGI was 2230 nM.

In the case of `CCCCN1CCN(c2ccc3nc(-c4ccc5nc(-c6ccc(OC)c(OC)c6)[nH]c5c4)[nH]c3c2)CC1`, the GI50 was 370 nM and the TGI was 1330 nM.

For `O=C(Nc1cccc(Cl)c1)Nc1nc2ccc([N+](=O)[O-])cc2s1`, the GI50 was 1040 nM and the TGI was 3250 nM.

Molecule `CCOC(=O)N1C/C(=C/c2ccc(F)cc2)C(=O)/C(=C/c2ccc(F)cc2)C1` has a GI50 of 1260 nM and a TGI of 2900 nM.

In the case of `CC(=O)Nc1cccc(Nc2nc(N[C@@H](C)c3ccccc3)c3ccccc3n2)c1`, the GI50 was 229 nM and the TGI was 818 nM.

Molecule `CC(=O)O[C@H]1CCC2(C)C(=CCC3C2CCC2(C)/C(=N/OC(=O)c4ccc(N(CCCl)CCCl)cc4)CCC32)C1` (stereo not given in full) has a GI50 of 31100 nM and a TGI of over 100000 nM.

`COc1cc(NCCCCCN=C(N)N)c2ncccc2c1` was tested, and the GI50 was 78 nM and the TGI was 344 nM.

`O=C(/C=C/c1ccc(Cl)cc1)/C=C/c1cc2ccccc2[nH]c1=O` gave a GI50 of 2350 nM and a TGI of 6010 nM.

`COc1ccc(C(=O)c2cc(OC)c3c(c2)OCO3)cc1O` showed a GI50 of 366 nM and a TGI of 3350 nM.

For `O=C1C=CC(=O)N1C1CCCCCCCCCCC1`, the GI50 was 2210 nM and the TGI was 6800 nM.

For `CN1CCN(CCCOc2ccc3nc(Nc4cc(Cl)cc(Cl)c4)ccc3c2)CC1`, the GI50 was 1600 nM and the TGI was 3250 nM.

Molecule `CCOc1nc(-c2ccccc2)cc2c(O)c(C(=O)N/N=C/c3ccc(O)cc3O)[nH]c(=O)c12` has a GI50 of 2490 nM and a TGI of 56700 nM.

Molecule `O=C(N/N=C\c1ccc(Cl)cc1)c1ccc2nc(-c3ccc(Br)cc3)[nH]c2c1` has a GI50 of 2020 nM and a TGI of 3860 nM.

With `COc1ccc2[nH]c(-c3ccccc3)c(/C=C(\C#N)S(=O)(=O)c3ccccc3)c2c1` the GI50 was 4170 nM and the TGI was over 100000 nM.

Work on `CCCS(=O)(=O)Nc1ccc(F)c(C(=O)c2c[nH]c3ncc(Cl)cc23)c1F` yielded a GI50 of 7640 nM and a TGI of 49500 nM.

`C[C@@H]1C[N+]2([O-])[C@H]3C4=CCC[C@@H]4CC[C@H]3[C@@]3(C)OC(=O)CC[C@]34CC[C@H]1[C@@H]42` (stereo not given in full) gave a GI50 of over 60000 nM and a TGI of over 60000 nM.

`O=C1Nc2cc(Cl)ccc2/C1=C\c1c(-c2ccc(F)cc2)nc2ccccn12` gave a GI50 of 448 nM and a TGI of 2250 nM.

In the case of `O=NN(CCCl)C(=O)NCCCl`, the TGI was 146000 nM and > 500000 nM.

`COc1cc2ncn(-c3cc(O[C@H](C)c4ccccc4Cl)c(C(N)=O)s3)c2cc1OC` was tested, and the GI50 was 7.89 nM and the TGI was 4000 nM.

In the case of `Nc1nc2c(c3ncccc13)C(c1cccc(Br)c1)Cc1ncccc1-2` (stereo not given), the GI50 was 349 nM and the TGI was 7660 nM.

`CCN1CCN(c2cc(C)nc(N(CCNc3ccnc4cc(Cl)ccc34)Cc3ccc4c(c3)OCO4)n2)CC1` was tested, and the GI50 was 534 nM and the TGI was 2140 nM.

For `CCOc1ccccc1NC1=C(Cl)C(=O)c2nc(C)ccc2C1=O`, the GI50 was 1450 nM and the TGI was 2880 nM.
